System: WT E14 mES cells
Experiment: Clonogenic survival assay, mES cells
Format: cell-based
Settings: Mus musculus, read-out: IC50 (clonogenic survival)
Text: Human mammary epithelial cell lines used included non-tumorigenic diploid MCF-10A, HMEC-hTERT and tumorigenic MDA-MB-468 (basal) and MCF-7 (luminal). […] Blood samples were obtained from normal donor participants. The participants provided written informed consent to IRB protocol #95–054 approved by the Institutional Review Board at MSKCC. The original signed consent is then sent to the research participant’s medical record and a copy of the consent is given to the participant. The EBV-transformed B-lymphocyte cell line (EBV-BL) was generated by transformation of peripheral blood mononuclear cells (PBMC) with the B95.8 strain of EBV, as previously described. Primary T cells were generated from PBMC from two normal donors by non-specific activation with phytohemagglutinin and cultured in RPMI1640 and human serum AB for 4–14 days before use. E14 mES cell line was provided by M. Hooper, Brca1^-/- 236.44 mES cell line was provided by B. H. Koller, Brca2^lex1/lex2 mES cell line was provided by P. Hasty and Lexicon Genetics. E14 wild-type, Brca1^-/- 236.44, and Brca2^lex1/lex2 mES cell lines were cultured in standard ES media. Brca1^-/- 236.44 cells express a BRCA1 peptide deleted for sequences encoded by exon 11 [52], while Brca2^lex1/lex2 cells express a BRCA2 peptide deleted for the terminal exon 27 [53]. […] Veliparib and BSI-201 were purchased from Chemie Tek. The compounds were dissolved in DMSO and PBS. For clonogenic survival assays, MCF-10A (1000 cells), HMEC-hTERT (1000 cells), MDA-MB-468 (1500 cells) and mouse ES cell (2000 cells) were seeded, vehicle control or inhibitors were added at the indicated concentration 24 hours after seeding and changed every three days for continuous treatment. At 7–14 days, colonies were fixed with methanol and stained with Giemsa. For EBV-BL (6 × 10^6) and primary T cells (3.6 × 10^6) were continuously exposed to the indicated concentration of drug for 10 days at 0.6 × 10^6 cells/ml. Viable cells were scored by trypan blue exclusion.

O=C(c1cc(Cc2n[nH]c(=O)c3ccccc23)ccc1F)N1CCN(C(=O)C2CC2)CC1 [olaparib] showed an IC50 of 600 nM.
